According to PubChem BioAssay (NCI):
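Values below derive from 48-hour exposures of cells grown in 96-well plates, with endpoints linearly interpolated between the two concentrations bracketing the appropriate inhibition level. GI50 marks 50% less growth. The concentration for full growth arrest is given as TGI.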 Where a SMILES comes first, the peptide text is derived from it. The star is where a group is joined. Boc = CC(C)(C)OC(=O)*; OBn = c1ccc(CO*)cc1

Key:
Assay in all cases: NCI-60 cell line screen, 48 h
COLO 205 colon = tested on: COLO 205 colon
NCI-H23 lung = tested on: NCI-H23 lung
SF-268 CNS = tested on: SF-268 CNS
BT-549 breast = tested on: BT-549 breast
ACHN renal = tested on: ACHN renal
HL-60(TB) leukemia = tested on: HL-60(TB) leukemia
LOX IMVI melanoma = tested on: LOX IMVI melanoma
NCI/ADR-RES ovarian = tested on: NCI/ADR-RES ovarian
SNB-75 CNS = tested on: SNB-75 CNS

Structure (SMILES) | TGI (COLO 205 colon) [µM] | TGI (NCI-H23 lung) [µM] | TGI (SF-268 CNS) [µM] | TGI (BT-549 breast) [µM] | TGI (ACHN renal) [µM] | TGI (HL-60(TB) leukemia) [µM] | TGI (LOX IMVI melanoma) [µM] | TGI (NCI/ADR-RES ovarian) [µM] | TGI (SNB-75 CNS) [µM] | GI50 (COLO 205 colon) [µM] | GI50 (SNB-75 CNS) [nM] | GI50 (NCI-H23 lung) [nM] | GI50 (SF-268 CNS) [nM] | GI50 (ACHN renal) [µM] | GI50 (HL-60(TB) leukemia) [µM] | GI50 (NCI/ADR-RES ovarian) [nM]
COC(=O)c1c(CC(Cc2ccc3c(c2)CCCC3)C(=O)OC)ccc2c1CCCC2 (stereo unspecified) | > 100 | > 100 | > 100 | > 100 | > 100 | 42.4 | > 100 | > 100 | – | – | – | – | – | – | – | –
COC(=O)C(=O)C(C(=O)C(=O)Nc1cccc([N+](=O)[O-])c1)c1nc2ccc(Cl)cc2[nH]c1=O (stereo unspecified) | > 100 | > 100 | > 100 | > 100 | > 100 | > 100 | > 100 | > 100 | > 100 | – | – | – | – | – | – | –
NC(=O)c1cc(N(CCO)CCO)c([N+](=O)[O-])cc1[N+](=O)[O-] | > 100 | > 100 | > 100 | – | > 100 | > 100 | > 100 | > 100 | – | – | – | – | – | – | – | –
O=C(Sc1c(-c2ccccc2)c(=O)n(-c2ccccc2)c(=S)n1-c1ccccc1)c1cccs1 | > 100 | > 100 | > 100 | > 100 | > 100 | > 100 | 61.2 | > 100 | > 100 | – | – | – | – | – | – | –
Cc1ccnc2nc(N)ccc12 | > 100 | > 100 | > 100 | > 100 | > 100 | > 100 | – | > 100 | > 100 | – | – | – | – | – | – | –
CC(C)CC(NC(=O)OC(C)(C)C)C(=O)NC(CC(=O)OCc1ccccc1)C(=O)OCc1ccccc1 (stereo not drawn) (Boc-Leu-Asp(OBn)-OBn; configuration not given here) | > 100 | > 100 | > 100 | > 100 | – | > 100 | 49.7 | > 100 | > 100 | – | – | – | – | – | – | –
O=C1C=C2CCC[C@H]3OC(=O)C[C@@]23CC1 | > 100 | > 100 | > 100 | – | > 100 | > 100 | > 100 | > 100 | – | – | – | – | – | – | – | –
COc1ccc(/C=C/C(=O)c2ccc(-n3cc(CN4CCN(c5cc6c(cc5F)c(=O)c(C(=O)O)cn6C5CC5)CC4)nn3)cc2)cc1OC | > 100 | 22.3 | > 100 | – | 45.2 | > 100 | – | > 100 | 4.29 | 5.09 | 1490 | 2970 | 3090 | 3.5 | 3.18 | > 100000
CCOC(=O)c1c(C)nc2c(c1-c1cn(-c3ccccc3)nc1-c1ccccc1)C(=O)c1ccccc1-2 | > 100 | > 100 | > 100 | > 100 | – | – | > 100 | > 100 | > 100 | – | – | – | – | – | – | –
COc1ccc(C2OCCN2C)cc1 (stereo unspecified) | > 100 | > 100 | > 100 | > 100 | > 100 | – | > 100 | > 100 | > 100 | – | – | – | – | – | – | –
CC(=O)OC12c3ccccc3C(c3ccccc31)C1C(=O)N(c3ccccn3)C(=O)C12 (stereo unspecified) | > 100 | > 100 | > 100 | > 100 | – | > 100 | > 100 | > 100 | > 100 | – | – | – | – | – | – | –
[O-][n+]1c(CN2CCCCC2)nc2cccc3c2c1-c1ccccc1-3 | 64.3 | 48.5 | – | > 100 | 70.5 | > 100 | 46.8 | 84.6 | 50.2 | – | – | – | – | – | – | –
OCC(CCc1ccccc1I)C1=CCC2(CC1)OCCO2 (stereo unspecified) | 34.6 | 48.9 | 50 | – | > 100 | 28.9 | 29.1 | 48 | 52 | – | – | – | – | – | – | –
Cc1ccc(NC2=NCCO2)c2c1CCC2 | 83.6 | > 100 | > 100 | – | > 100 | 39.9 | 76 | 50 | 84.5 | – | – | – | – | – | – | –
Cc1ccc(-c2cc(O)c3nc4ccccc4n3c2)cc1 | > 100 | > 100 | > 100 | > 100 | – | > 100 | > 100 | > 100 | > 100 | – | – | – | – | – | – | –
N#C/C(=C\c1ccc([N+](=O)[O-])s1)c1nc2cc(Cl)ccc2s1 | 4.06 | 3.91 | > 100 | – | – | – | – | 6.07 | – | 1.55 | – | 773 | 2510 | – | – | 1060
CCCCCCCCCC(=O)N[C@@H](c1ccco1)[C@@H](O)C(=O)O[C@H]1C[C@@]2(O)[C@@H](OC(=O)c3ccccc3)[C@@H]3[C@]4(OC(C)=O)CO[C@@H]4C[C@H](O)[C@@]3(C)C(=O)[C@H](OC(C)=O)C(=C1C)C2(C)C | 0.0335 | 11.4 | 24.5 | 1.07 | > 22.7 | 0.0292 | 7.74 | 20.5 | – | – | – | – | – | – | – | –
CC1(C)C(CCO)CC1n1ccc(=O)[nH]c1=O (stereo unspecified) | – | – | > 100 | – | > 100 | – | > 100 | > 100 | > 100 | – | – | – | – | – | – | –
CN1N=C(c2ccncc2)OC1c1cccc(C(F)(F)F)c1 (stereo unspecified) | > 100 | > 100 | > 100 | – | > 100 | > 100 | > 100 | > 100 | 87.3 | – | – | – | – | – | – | –
NC(Cc1c[nH]c2cc([N+](=O)[O-])ccc12)C(=O)O (stereo unspecified) | > 100 | > 100 | > 100 | > 100 | > 100 | – | > 100 | > 100 | > 100 | – | – | – | – | – | – | –
CCOC(=O)NNC(=O)NCc1ccccc1CNC(=O)NNC(=O)OCC | > 100 | > 100 | > 100 | > 100 | – | > 100 | > 100 | > 100 | > 100 | – | – | – | – | – | – | –
COC(=O)[C@@](C)(COC(=O)C(C)(C)C)NC(=O)OC(C)(C)C | > 100 | > 100 | > 100 | > 100 | > 100 | – | > 100 | > 100 | > 100 | – | – | – | – | – | – | –
CC1(C)CC2(C)CC1CC2(O)c1ccccc1 (stereo unspecified) | > 100 | > 100 | > 100 | > 100 | > 100 | > 100 | – | – | > 100 | – | – | – | – | – | – | –
COC(=O)CCc1c(Cc2ccc[nH]2)[nH]c(C(=O)OCc2ccccc2)c1C | 32.9 | 43.9 | 53.7 | – | 70.6 | – | 35.1 | 52.1 | – | – | – | – | – | – | – | –
